Earlier results on one substance are cited in patent US12285483B2 (priority 2020, dated 2025).

For this data set the following is noted: pure solanesol, room temperature.

Regarding solanesol, the solubility in water entry is recorded as “insoluble in water”.
